Results on two compounds are retold here after paper PMC12136037, “Type II kinase inhibitors that target Parkinson’s disease–associated LRRK2” (Science Advances, 2025).

Experiment [1] deals with LRRK2 S935 phosphorylation. Nature of the experiment: Western blot of LRRK2 biomarker site pS935 in transfected 293T cells. The experiment is classed as cell-based, human. As to the method: For all in cell kinase assays, after 48 hours, transfected cells were treated with either DMSO (control) or the indicated inhibitors for 4 hours at 37°C and 5% CO2. Following treatments, cells were washed three times with ice cold PBS. Cells were then lysed in ice cold radioimmunoprecipitation assay (RIPA) lysis buffer [50 mM tris (pH 8.0), 150 mM NaCl, 1% Triton X-100, 0.1% SDS, 0.5% sodium deoxycholate, and 1 mM DTT] in the presence of complete mini EASYpack protease inhibitor cocktail and the PhosSTOP EASYpack phosphatase inhibitor cocktail (Roche). Resuspended and lysed cells were clarified by centrifugation at 13,000g for 15 min at 4°C. NuPAGE LDS Sample Buffer (1×) and NuPAGE Sample Reducing Agent (1×; Invitrogen) were added to the clarified supernatants, and the samples were boiled at 95°C for 5 min and spun down at 13,000g for 10 min. For Western blotting, 15 μl of sample was loaded into a NuPAGE 4 to 12% gradient bis-tris gel (Invitrogen) and run at 120 V for 75 min before transfer to polyvinylidene difluoride transfer membrane (0.45-μm pore size, Millipore) for 240 min at 80 V at 4°C. The membrane was blocked in 5% milk in 1× Tris-buffered saline (TBS) [20 mM tris (pH 8.0) and 150 mM NaCl] for 1 hour shaking at room temperature. Primary antibodies [monoclonal rabbit anti-LRRK2 (Abcam, ab133474; RRID: AB_2713963), polyclonal rabbit anti-LRRK1 (Abcam, ab228666), monoclonal rabbit anti-LRRK2 phospho-S935 (Abcam, ab133450; RRID: AB_2732035), monoclonal rabbit anti-Rab8a phospho-T72 (Abcam, ab230260; RRID: AB_2814988), monoclonal rabbit anti-Rab7 phospho-S72 (Abcam, ab302494; RRID: AB_2933985), monoclonal rabbit anti–glyceraldehyde-3-phosphate dehydrogenase (GAPDH; Cell Signalling Technology, 2118; RRID: AB_561053), and monoclonal mouse anti-GFP (Santa Cruz Biotechnology, sc-9996; RRID: AB_627695)] were diluted in 5% milk in TBS and incubated with membrane for 16 hours at 4°C. Following incubation, membranes were washed three times with 1× TBS-T [20 mM tris (pH 8.0), 150 mM NaCl, and 0.1% Tween 20] before incubation with IRDye 680RD goat anti-rabbit IgG (LI-COR, 926-68071; RRID: AB_10956166) and IRDye 800CW goat anti-mouse IgG (LI-COR, 926-32210; RRID: AB_621842) secondary antibodies in 5% milk in 1× TBS for 1 hour at room temperature. Membranes were then washed three times in 1× TBS-T before imaging on Li-COR Odyssey CLx controlled by Imaging Studio software (www.licorbio.com/image-studio, RRID:SCR_015795). Image processing and quantification were performed in ImageJ version 2.14.0 (National Institutes of Health; https://imagej.net/, RRID:SCR_003070). The signal intensity of each band was assessed using the Analyze>Gels tool. The band intensity for phosphorylated LRRK2 was measured and compared to total LRRK2 levels (run under identical conditions on a separate gel). Band intensity for phosphorylated Rab7 or Rab8a was measured and compared against total GFP-Rab7 or GFP-Rab8a (using anti-GFP antibody) and LRRK1/LRRK2 levels as appropriate. Comparative statistical analysis of phosphorylation levels was analyzed using a one-way analysis of variance (ANOVA) and corrected using Tukey’s multiple comparisons test in GraphPad Prism 10 (www.graphpad.com/, RRID:SCR_002798). (For current step-by-step protocol for LRRK transfection and Western blotting, see dx.doi.org/10.17504/protocols.io.kxygx9bozg8j/v1.)

Experiment [2] deals with T1, LRRK2^KW (Homo sapiens, UniProt Q5S007).
T1 construct: LRRK2 R1847 to E2527; His6-Z-tag (TEV cleavable) (N, cleaved yes); host or cells: Sf9 insect cells (baculovirus)
T1 sequence (Q5S007 1847-2527): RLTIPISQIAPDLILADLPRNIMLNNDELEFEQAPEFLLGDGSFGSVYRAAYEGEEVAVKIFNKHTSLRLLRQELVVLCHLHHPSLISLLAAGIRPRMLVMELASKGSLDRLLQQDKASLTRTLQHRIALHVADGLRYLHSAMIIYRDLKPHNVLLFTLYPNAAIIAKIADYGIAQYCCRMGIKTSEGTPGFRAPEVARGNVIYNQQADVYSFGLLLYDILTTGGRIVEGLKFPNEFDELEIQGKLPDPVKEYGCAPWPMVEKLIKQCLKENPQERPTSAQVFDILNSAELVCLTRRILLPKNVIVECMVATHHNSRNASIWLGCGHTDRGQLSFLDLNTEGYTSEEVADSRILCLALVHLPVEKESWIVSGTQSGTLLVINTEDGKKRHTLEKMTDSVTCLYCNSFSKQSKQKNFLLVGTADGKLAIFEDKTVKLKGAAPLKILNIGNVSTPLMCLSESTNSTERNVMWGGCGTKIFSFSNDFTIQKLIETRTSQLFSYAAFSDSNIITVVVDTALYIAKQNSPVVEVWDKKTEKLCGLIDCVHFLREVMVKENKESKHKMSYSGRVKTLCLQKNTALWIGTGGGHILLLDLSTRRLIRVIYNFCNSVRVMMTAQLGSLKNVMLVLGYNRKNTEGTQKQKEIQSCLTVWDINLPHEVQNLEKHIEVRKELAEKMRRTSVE
Nature of the experiment: DSF thermal stabilization of LRRK2^KW. It counts as binding. Conditions: DSF, LRRK2^KW, 10 μM inhibitor. An outline of the steps:
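DSF on 4 μM LRRK2^KW in 20 mM Hepes pH 7.4, 150 mM NaCl, 0.5 mM TCEP, 0.5% glycerol, 20 μM GDP, 2.5 mM MgCl2 with SYPRO Orange; inhibitor at 10 μM. Tm was taken as the minimum of the first derivative of fluorescence versus temperature, relative to control.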

The target in experiment [3] is T2, LRRK2^RCKW (Homo sapiens, UniProt Q5S007).
T2 construct: LRRK2 R1327 to E2527; His6-Z-tag (TEV cleavable) (N, cleaved yes); host or cells: Sf9 insect cells (baculovirus)
T2 sequence (Q5S007 1327-2527): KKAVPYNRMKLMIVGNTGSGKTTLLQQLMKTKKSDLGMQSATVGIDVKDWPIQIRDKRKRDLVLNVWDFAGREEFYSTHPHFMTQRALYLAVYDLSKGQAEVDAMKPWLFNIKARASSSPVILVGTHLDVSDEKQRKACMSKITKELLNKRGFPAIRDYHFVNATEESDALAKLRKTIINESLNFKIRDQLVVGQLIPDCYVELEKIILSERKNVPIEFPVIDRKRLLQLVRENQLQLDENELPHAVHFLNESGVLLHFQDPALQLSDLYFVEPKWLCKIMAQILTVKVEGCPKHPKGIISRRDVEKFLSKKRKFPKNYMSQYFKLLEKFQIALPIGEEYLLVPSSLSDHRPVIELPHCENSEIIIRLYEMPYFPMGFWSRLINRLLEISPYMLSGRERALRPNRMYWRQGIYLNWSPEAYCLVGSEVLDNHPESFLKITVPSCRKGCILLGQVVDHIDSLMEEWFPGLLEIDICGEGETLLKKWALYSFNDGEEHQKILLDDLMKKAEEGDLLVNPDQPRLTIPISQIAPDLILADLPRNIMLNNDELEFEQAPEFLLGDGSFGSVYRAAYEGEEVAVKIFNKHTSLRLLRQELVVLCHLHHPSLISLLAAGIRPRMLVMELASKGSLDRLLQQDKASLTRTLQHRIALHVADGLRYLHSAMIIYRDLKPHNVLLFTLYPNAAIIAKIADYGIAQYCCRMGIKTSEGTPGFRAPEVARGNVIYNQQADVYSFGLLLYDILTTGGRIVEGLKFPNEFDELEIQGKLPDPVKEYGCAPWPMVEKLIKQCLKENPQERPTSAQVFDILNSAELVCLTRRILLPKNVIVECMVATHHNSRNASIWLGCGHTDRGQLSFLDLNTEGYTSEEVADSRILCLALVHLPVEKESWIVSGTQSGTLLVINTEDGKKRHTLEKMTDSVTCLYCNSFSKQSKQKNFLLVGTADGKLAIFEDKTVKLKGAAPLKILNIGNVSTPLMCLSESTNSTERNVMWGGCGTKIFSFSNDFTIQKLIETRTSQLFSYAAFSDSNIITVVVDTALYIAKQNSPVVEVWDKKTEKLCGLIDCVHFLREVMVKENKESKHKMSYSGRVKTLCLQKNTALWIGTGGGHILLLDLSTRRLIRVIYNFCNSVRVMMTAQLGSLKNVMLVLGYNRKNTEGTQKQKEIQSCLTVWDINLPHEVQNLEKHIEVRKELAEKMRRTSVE
Nature of the experiment: Biochemical LRRK2 activity assay (PhosphoSense, AssayQuant SOX peptide AQT0615). Conditions: for normalized response (LRRK2 activity): normalized to 0% (no kinase) and 100% (no inhibitor) control, two singlicate columns per compound. As to the method: Two wells per compound were used as 0% (without protein and compound) and 100% (without compound) control. […] The 0% control wells were filled with 10 μl of pure reaction buffer. With the ECHO, 5 nl of 100 mM ATP was pipetted into each well, the plates were centrifuged at 1500g for 2 min, and the reaction was incubated at room temperature for 4 hours. The fluorescence of the SOX-peptide after 360-nm excitation was measured at 487-nm emission with a PHERAstar plate reader (BMG Labtech). The IC50 values were calculated from a nonlinear regression of the log[inhibitor] versus the normalized response with GraphPad Prism 8 (www.graphpad.com/, RRID:SCR_002798).

Molecules are shown by their SMILES. Where “and” joins values, the source holds several entries; their conditions need not be identical. Identical values can stand only once.

In the case of `C[C@@H]1CN(c2cc(-c3n[nH]c4ccc(OC5(C)CC5)cc34)ncn2)C[C@H](C)O1` [MLi-2, reference compound], in experiment [1] (500 nM, 4 h, 3 replicates), the “pS935 LRRK2/LRRK2 normalized to DMSO, Mean” value was 0.05291. Besides, the “pS935 LRRK2/LRRK2 normalized to DMSO” value in experiment [1] (500 nM, 4 h, individual Western blots) was 0.09836 and 0.02387 and 0.03651. In addition, the “effect on phosphorylation of LRRK2 S935” value in experiment [1] (293T cells, MLi-2 500 nM) is on record as “almost complete dephosphorylation”.
With `Cc1ccc(NC(=O)C2(C(=O)Nc3ccc(F)cc3)CC2)cc1-c1c[nH]c2ncnc(N3CCOCC3)c12` [Compound 5], in experiment [2], the “∆Tm (K)” value is 1.8 K. Besides, the concentration for half-maximal inhibition (IC50) (usually the midpoint of a concentration-inhibition curve) in experiment [3] (LRRK2^RCKW kinase activity, in vitro) was found to be 9.58 ± 0.565 µM. The “normalized response (LRRK2 activity)” value was 55.8562% and 55.0924% in experiment [3] (log[inhibitor(mol)] -5.12494); 86.5066% and 85.5833% in experiment [3] (log[inhibitor(mol)] -5.60206); 96.7944% and 101.803% in experiment [3] (log[inhibitor(mol)] -6.90309); 96.688% and 103.084% in experiment [3] (log[inhibitor(mol)] -7.30103); 102.717% and 103.476% in experiment [3] (log[inhibitor(mol)] -7.60206); 97.9836% and 98.7571% in experiment [3] (log[inhibitor(mol)] -8.09691). For the same compound, the “normalized response (LRRK2 activity)” value in experiment [3] (log[inhibitor(mol)] -8.61979) was 100.995% and 103.804%; in experiment [3] (log[inhibitor(mol)] -9.09691), 100.705% and 102.156%; in experiment [3] (log[inhibitor(mol)] -9.39794), 104.655% and 105.003%.
